Results reported in patent publication US8268355B2, “Silica particle comprising an organolanthanide compound, preparation process therefor and uses thereof” (Commissariat a l'Energie Atomique, priority 2008, dated 2012).

Experiments:
[1] = Potentiometric titration of the ligand with KOH: deprotonation constants; format: physicochemical; settings: titration with KOH in KCl 0.1M, 298 K
Text: (§1) The three sulfonates are fully deprotonated under the experimental conditions used. The deprotonation constants of H9thqtcn-SO3^3+ are defined as Kai=[H9-iL]^(1-i) [H]^+/[H8-iL]^(2-i)+. Analysis of the potentiometric curves enabled precise determination of 6 deprotonation constants (pKa8=2.9(2), pKa7=5.34(5), pKa6=8.01(8), pKa5=8.78(1), pKa4=8.98(4), pKa3=10.25(2)), whereas it was possible only to obtain the sum pKa1+pKa2=(22.51(3)).

[2] = Stability of the Gd complex (pGd) by UV-visible spectrophotometry in HEPES buffer pH 7.4; format: physicochemical; settings: pH 7.4, HEPES, [M]total=1 mM, [bpatcn]total=10 mM
Procedure: Appreciably, the interaction between the lanthanide ions and the ligand was monitored by UV-visible spectrophotometry for a representative ion of intermediate size, namely Gd in dilute aqueous solutions, buffered with HEPES at pH 7.4. The value of pGd (pM=−log [M]free at pH 7.4, [M]total=1 mM and [bpatcn]total=10 mM), which allows a simple and direct comparison of the stabilities of the complexes under physiological conditions, found for thqtcn-SO3^6−(19) is similar to the value reported for the gadolinium complexes of diethylenetriaminepentaacetic acid (dtpa) (pGd=19.6), which are widely acknowledged as non-toxic.

Solubility observations = format: physicochemical; settings: aqueous, potentiometric titration conditions
Text: as §1
The elemental analyses of all the complexes are compatible with the presence of analytically pure [Ln(thqtcn)] species. These complexes are insoluble in all the commonly used laboratory solvents.
As hoped, this ligand results in Ln(III) complexes that are water-soluble at physiological pHs.

[3] = gadolinium complexes of dtpa; cited from earlier work

Compound | pKa3 [1] | pKa4 [1] | pKa5 [1] | pKa6 [1] | pKa7 [1] | pKa8 [1] | sum pKa1+pKa2 [1] | pGd (pM=-log [M]free) [2] | solubility of the ligand (Solubility observations) | pGd (reported value) [3]
1,4,7-tris[2-(5-sulfo-8-hydroxyquinolinyl)methyl]-1,4,7-triaza-cyclononane [H6thqtcn-SO3] | 10.25(2) | 8.98(4) | 8.78(1) | 8.01(8) | 5.34(5) | 2.9(2) | 22.51(3) | 19 | high solubility | –
O=C(O)CN(CCN(CC(=O)O)CC(=O)O)CCN(CC(=O)O)CC(=O)O [dtpa, diethylenetriaminepentaacetic acid] | – | – | – | – | – | – | – | – | – | 19.6
